According to US11174271B2, “6-membered uracil isosteres” (CV6 Therapeutics (NI) Limited, priority 2016, dated 2021):

Target: T1, recombinant human deoxyuridine nucleotidohydrolase (dUTPase) (Homo sapiens, UniProt P33316)
T1 construct: made in house
T1 sequence (P33316 1-164 isoform P33316-2): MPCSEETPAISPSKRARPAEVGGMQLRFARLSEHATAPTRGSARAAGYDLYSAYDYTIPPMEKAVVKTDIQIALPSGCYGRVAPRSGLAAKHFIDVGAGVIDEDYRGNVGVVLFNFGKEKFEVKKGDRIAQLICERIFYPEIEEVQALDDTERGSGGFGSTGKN
Test: fluorescence-based dUTPase inhibition assay (DNA polymerase-based dUTP detection)
Format: biochemical
Settings: mean across three concentrations, typically 100, 50 and 25 μmol/L, compared to the in-run positive control
From the text: Recombinant human deoxyuridine nucleotidohydrolase (dUTPase) is expressed and purified as described in Ladner R D, Carr S A, Huddleston M J, McNulty D E, Caradonna S J. J Biol Chem. 1996 Mar. 29; 271(13):7752-7. All drugs stocks are aliquoted and diluted as appropriate prior to use. The oligonucelotide primer, templates and fluorophore- and quencher-labeled detection probes are synthesized by Integrated DNA Technologies (Coralville, Iowa), subjected to polyacrylamide gel electrophoresis purification and reconstituted in Omnipur sterile nuclease-free water (EMD Chemicals USA, Gibbstown N.J.) at a stock concentration of 100 μmol/L. The two non-emissive (dark) quenching molecules incorporated into the detection probes include the Iowa black fluorescein quencher (IBFQ; absorption max 531 nm) and ZEN (non-abbreviation; absorption max 532 nm). The fluorescent label utilized is 6-FAM (5′-carboxyfluorescein; excitation max.=494 nm, emission max.=520 nm). Probes are further diluted to a working stock of 10 μmol/L and aliquoted to avoid repeated freeze/thaw cycles. AmpliTaq Gold DNA Polymerase, GeneAmp 10×PCR Buffer 2, MgCl2 and MicroAmp Optical 96-well Reaction Plates are purchased from Applied Biosystems (Carlsbad, Calif.). dNTPs are purchased individually at stock concentrations of 100 mmol/L from New England Biolabs at HPLC-certified >99% purity (Ipswich, Mass.).
Reaction mixtures contained primer, probe and template at an equimolar final concentration of 0.4 μmol/L. Magnesium chloride (MgCl2) is included at a final concentration of 2 mmol/L. Non-limiting dNTPs are included in the reaction mix in excess at a final concentration of 100 μmol/L (dUTP/dTTP is excluded). AmpliTaq Gold DNA polymerase is added at 0.875 U/reaction, 2.5 μl of 10×PCR buffer 2 added and nuclease-free ddH2O added to a final reaction volume of 25 μl. For dUTP inhibition analysis, the volume of ddH2O is further modified to accommodate an additional 1 μl of dUTPase (10 ng/μl) and 1 μl of inhibitor or DMSO control. Thermal profiling and fluorescence detection is performed using a customized thermal program on board a Roche Lightcycler LC480 Instrument II. For analysis of dNTPs, the thermal profile consisted of an 8 min 37° C. step followed by a 10 min 95° C. step to ‘hot-start’ the Taq polymerase and a primer extension time of up to 30 min at 60° C. Raw fluorescence spectra for 6-FAM is measured at specified time intervals to follow assay progression on board a Roche LightCycler 480 Software Version 1.5 and exported and analyzed in Microsoft Excel (Microsoft, Redmond Wash.) and Prism (GraphPad Software, La Jolla Calif.). Fluorescence values for blank reactions (limiting dNTP omitted) are subtracted to give normalized fluorescence units (NFU) to account for background fluorescence.
Test compounds were screened in a fluorescence-based assay. The assay employed a DNA polymerase-based approach utilizing an oligonucleotide template with 3 distinct regions: a 3′ primer binding region, a mid-template dUTP/thymidine triphosphate (TTP) detection region and a 5′ 6-[…] (FAM)-labeled probe binding region that incorporates a black hole quenching moiety. During the reaction, the probe and primer hybridize to the oligonucleotide template to form the template:primer:probe complex. When Taq polymerase binds to the primer in the TPP complex and dUTP is present, successful extension of the nascent strand occurs and the inherent 5′ to 3′ exonuclease activity of Taq polymerase cleaves and displaces the 6-FAM-labeled probe in a 5′ to 3′ direction, releasing the 6-FAM fluorophore from its proximity to the […]. This displacement effectively disrupts the Förster resonance energy transfer (FRET) and the resulting fluorescence detected upon excitation is directly proportional to the amount of the dUTP available in the assay for incorporation. […]

Row | % relative inhibition vs. positive control | Compound | also measured
1 | – | CC(C)(NS(=O)(=O)CC/C=C/CC1CCC(=O)NC1=O)c1ccc(F)c(OCC2CC2)c1 (single isomer, unassigned) [Example 79 trans isomer 1, (E)-N-(2-(3-(cyclopropylmethoxy)-4-fluorophenyl)propan-2-yl)-5-(2,6-dioxopiperidin-3-yl)pent-3-ene-1-sulfonamide] | % relative inhibition vs. positive control (listed as 79 trans isomer 1): 22%
2 | – | CC(C)(NS(=O)(=O)CC/C=C/CC1CCC(=O)NC1=O)c1ccc(F)c(OCC2CC2)c1 (single isomer, unassigned) [Example 79 trans isomer 2, (E)-N-(2-(3-(cyclopropylmethoxy)-4-fluorophenyl)propan-2-yl)-5-(2,6-dioxopiperidin-3-yl)pent-3-ene-1-sulfonamide] | % relative inhibition vs. positive control (listed as 79 trans isomer 2): 51%
3 | – | CC(C)(NS(=O)(=O)CCCCCC1CCC(=O)NC1=O)c1ccc(F)c(OCC2CC2)c1 (single isomer, unassigned) [Example 81 isomer 1, N-(2-(3-(cyclopropylmethoxy)-4-fluorophenyl)propan-2-yl)-5-(2,6-dioxopiperidin-3-yl)pentane-1-sulfonamide] | % relative inhibition vs. positive control (listed as 81 isomer 1): 16%
4 | – | CC(C)(NS(=O)(=O)CCCCCC1CCC(=O)NC1=O)c1ccc(F)c(OCC2CC2)c1 (single isomer, unassigned) [Example 81 isomer 2, N-(2-(3-(cyclopropylmethoxy)-4-fluorophenyl)propan-2-yl)-5-(2,6-dioxopiperidin-3-yl)pentane-1-sulfonamide] | % relative inhibition vs. positive control (listed as 81 isomer 2): 41%
5 | – | CC[C@@H](NS(=O)(=O)CC/C=C/CC1CCC(=O)NC1=O)c1ccc(F)c(OCC2CC2)c1 (single isomer, unassigned) [Example 88 trans isomer 1] | % relative inhibition vs. positive control (listed as 88 trans isomer 1): 10%
6 | – | CC[C@@H](NS(=O)(=O)CC/C=C/CC1CCC(=O)NC1=O)c1ccc(F)c(OCC2CC2)c1 (single isomer, unassigned) [Example 88 trans isomer 2] | % relative inhibition vs. positive control (listed as 88 trans isomer 2): 167%
7 | 70% | CC(C)(NS(=O)(=O)CC/C=C/CC1CCC(=O)NC1=O)c1ccc(F)c(OCC2CC2)c1 (stereo not shown) [Example 79, (E)-N-(2-(3-(cyclopropylmethoxy)-4-fluorophenyl)propan-2-yl)-5-(2,6-dioxopiperidin-3-yl)pent-3-ene-1-sulfonamide] | –
8 | 49% | CC(C)(NS(=O)(=O)CCCCCC1CCC(=O)NC1=O)c1ccc(F)c(OCC2CC2)c1 (stereo not shown) [Example 81, N-(2-(3-(cyclopropylmethoxy)-4-fluorophenyl)propan-2-yl)-5-(2,6-dioxopiperidin-3-yl)pentane-1-sulfonamide] | –
9 | 26% | CC(C)(NS(=O)(=O)C/C=C/CC1CCC(=O)NC1=O)c1ccc(F)c(OCC2CC2)c1 (stereo not shown) [Example 82, (E)-N-(2-(3-(cyclopropylmethoxy)-4-fluorophenyl)propan-2-yl)-4-(2,6-dioxopiperidin-3-yl)but-2-ene-1-sulfonamide] | –
10 | 45% | CC(C)(NS(=O)(=O)CCC/C=C/CC1CCC(=O)NC1=O)c1ccc(F)c(OCC2CC2)c1 (stereo not shown) [Example 83, (E)-N-(2-(3-(cyclopropylmethoxy)-4-fluorophenyl)propan-2-yl)-6-(2,6-dioxopiperidin-3-yl)hex-4-ene-1-sulfonamide] | –
11 | 22% | CC(C)(NS(=O)(=O)CC/C=C/CC1CCC(=O)NC1=O)c1cccc(OCC2CC2)c1 (stereo not shown) [Example 84, (E)-N-(2-(3-(cyclopropylmethoxy)phenyl)propan-2-yl)-5-(2,6-dioxopiperidin-3-yl)pent-3-ene-1-sulfonamide] | –
12 | 11% | CC(C)(NS(=O)(=O)CCCCCNC1CCC(=O)NC1=O)c1ccc(F)c(OCC2CC2)c1 (stereo not shown) [Example 85, N-(2-(3-(cyclopropylmethoxy)-4-fluorophenyl)propan-2-yl)-5-((2,6-dioxopiperidin-3-yl)amino)pentane-1-sulfonamide] | –
13 | 6% | CC[C@@](O)(CNS(=O)(=O)CCCNC1CCC(=O)NC1=O)c1ccc(F)c(OCC2CC2)c1 (stereo partly drawn) [Example 86, N—((S)-2-(3-(cyclopropylmethoxy)-4-fluorophenyl)-2-hydroxybutyl)-3-((2,6-dioxopiperidin-3-yl)amino)propane-1-sulfonamide] | –
14 | 26% | CC(C)(NS(=O)(=O)C/C=C/CCC1CCC(=O)NC1=O)c1ccc(F)c(OCC2CC2)c1 (stereo not shown) [Example 87, (E)-N-(2-(3-(cyclopropylmethoxy)-4-fluorophenyl)propan-2-yl)-5-(2,6-dioxopiperidin-3-yl)pent-2-ene-1-sulfonamide] | –
15 | 80% | CC[C@@H](NS(=O)(=O)CC/C=C/CC1CCC(=O)NC1=O)c1ccc(F)c(OCC2CC2)c1 (stereo partly drawn) [Example 88, (E)-N—((R)-1-(3-(cyclopropylmethoxy)-4-fluorophenyl)propyl)-5-(2,6-dioxopiperidin-3-yl)pent-3-ene-1-sulfonamide] | –
16 | 65% | CC[C@@](O)(CNS(=O)(=O)C/C=C/CC1CCC(=O)NC1=O)c1ccc(F)c(OCC2CC2)c1 (stereo partly drawn) [Example 89, (E)-N—((S)-2-(3-(cyclopropylmethoxy)-4-fluorophenyl)-2-hydroxybutyl)-4-(2,6-dioxopiperidin-3-yl)but-2-ene-1-sulfonamide] | –
17 | 82% | CC[C@@](O)(CNS(=O)(=O)CCCCC1CCC(=O)NC1=O)c1ccc(F)c(OCC2CC2)c1 (stereo partly drawn) [Example 90, N—((S)-2-(3-(cyclopropylmethoxy)-4-fluorophenyl)-2-hydroxybutyl)-4-(2,6-dioxopiperidin-3-yl)butane-1-sulfonamide] | –
18 | 10% | CC[C@@H](NS(=O)(=O)CCCCCC1CCC(=O)NC1=O)c1ccc(F)c(OCC2CC2)c1 (stereo partly drawn) [Example 91, N—((R)-1-(3-(cyclopropylmethoxy)-4-fluorophenyl)propyl)-5-(2,6-dioxopiperidin-3-yl)pentane-1-sulfonamide] | –
19 | 81% | CC(C)(O)COc1cc(C2(NS(=O)(=O)CC/C=C/CN3CCC(=O)NC3=O)CC2)ccc1F [Example 92, (E)-5-(2,4-dioxotetrahydropyrimidin-1(2H)-yl)-N-(1-(4-fluoro-3-(2-hydroxy-2-methylpropoxy)phenyl)cyclopropyl)pent-3-ene-1-sulfonamide] | –
